The kinase profiling compilation of Christmann-Franck et al. (2016)

Key:
Experiment in all cases: radiometric filter-binding kinase assay, Kinase HotSpot
Conditions in all cases: compound 0.5 µM; ATP 10 µM
DCLK2 (human) = DCLK2 (human) (UniProt Q8N568)
EPHA7 (human) = EPHA7 (human) (UniProt Q15375)
PLK2 (human) = PLK2 (human) (UniProt Q9NYY3)
NEK9 (human) = NEK9 (human) (UniProt Q8TD19)
AURKA (human) = AURKA (human) (UniProt O14965)
PTK2 (human) = PTK2 (human) (UniProt Q05397)
PRKD3 (human) = PRKD3 (human) (UniProt O94806)
MATK (human) = MATK (human) (UniProt P42679)
MARK2 (human) = MARK2 (human) (UniProt Q7KZI7)
WNK2 (human) = WNK2 (human) (UniProt Q9Y3S1)
CDC42BPB (human) = CDC42BPB (human) (UniProt Q9Y5S2)
MAP3K10 (human) = MAP3K10 (human) (UniProt Q02779)
CDK2 CCNA2 (human) = CDK2 CCNA2 (human) (UniProt P24941+P20248)
PASK (human) = PASK (human) (UniProt Q96RG2)
TAOK1 (human) = TAOK1 (human) (UniProt Q7L7X3)
RPS6KA6 KD1 KD2 (human) = RPS6KA6 KD1 KD2 (human) (UniProt Q9UK32)
INSRR (human) = INSRR (human) (UniProt P14616)
CAMK2G (human) = CAMK2G (human) (UniProt Q13555)
CDK5 CDK5R1 p35 (human) = CDK5 CDK5R1 p35 (human) (UniProt Q00535+Q15078)
FRK (human) = FRK (human) (UniProt P42685)
CAMK4 (human) = CAMK4 (human) (UniProt Q16566)
MKNK2 (human) = MKNK2 (human) (UniProt Q9HBH9)
SRPK2 (human) = SRPK2 (human) (UniProt P78362)
SIK2 (human) = SIK2 (human) (UniProt Q9H0K1)
MAP3K9 (human) = MAP3K9 (human) (UniProt P80192)
PDGFRA (human) = PDGFRA (human) (UniProt P16234)
ACVR1B (human) = ACVR1B (human) (UniProt P36896)
PKN2 (human) = PKN2 (human) (UniProt Q16513)
CAMKK1 (human) = CAMKK1 (human) (UniProt Q8N5S9)
MUSK (human) = MUSK (human) (UniProt O15146)
INSR (human) = INSR (human) (UniProt P06213)
ABL1 (human) = ABL1 (human) (UniProt P00519)
AKT1 (human) = AKT1 (human) (UniProt P31749)
STK39 (human) = STK39 (human) (UniProt Q9UEW8)
IKBKB (human) = IKBKB (human) (UniProt O14920)
PRKD1 (human) = PRKD1 (human) (UniProt Q15139)
PDPK1 (human) = PDPK1 (human) (UniProt O15530)
BRSK1 (human) = BRSK1 (human) (UniProt Q8TDC3)
MELK (human) = MELK (human) (UniProt Q14680)
MAP3K5 (human) = MAP3K5 (human) (UniProt Q99683)
RPS6KA3 KD1 KD2 (human) = RPS6KA3 KD1 KD2 (human) (UniProt P51812)
PAK2 (human) = PAK2 (human) (UniProt Q13177)

Sequence of PLK2 (human) (Q9NYY3 whole entry, looked up): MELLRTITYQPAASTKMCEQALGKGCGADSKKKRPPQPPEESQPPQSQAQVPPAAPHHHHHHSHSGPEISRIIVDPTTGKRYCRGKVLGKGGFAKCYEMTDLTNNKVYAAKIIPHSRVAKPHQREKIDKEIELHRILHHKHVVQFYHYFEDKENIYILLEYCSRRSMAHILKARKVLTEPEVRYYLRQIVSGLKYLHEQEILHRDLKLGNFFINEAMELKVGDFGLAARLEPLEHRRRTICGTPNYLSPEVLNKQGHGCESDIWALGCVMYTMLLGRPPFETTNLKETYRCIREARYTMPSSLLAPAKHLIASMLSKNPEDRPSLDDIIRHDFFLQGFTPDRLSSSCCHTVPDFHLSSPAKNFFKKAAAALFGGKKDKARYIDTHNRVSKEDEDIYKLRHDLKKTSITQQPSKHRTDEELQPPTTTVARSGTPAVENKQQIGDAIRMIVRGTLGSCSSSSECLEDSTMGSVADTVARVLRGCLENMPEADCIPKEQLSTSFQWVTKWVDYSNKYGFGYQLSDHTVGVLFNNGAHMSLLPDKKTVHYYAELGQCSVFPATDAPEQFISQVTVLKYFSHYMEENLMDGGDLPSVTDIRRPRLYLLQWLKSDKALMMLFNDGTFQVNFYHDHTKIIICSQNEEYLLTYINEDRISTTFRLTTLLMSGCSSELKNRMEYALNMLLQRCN
Sequence of RPS6KA6 KD1 KD2 (human) (Q9UK32 whole entry, looked up): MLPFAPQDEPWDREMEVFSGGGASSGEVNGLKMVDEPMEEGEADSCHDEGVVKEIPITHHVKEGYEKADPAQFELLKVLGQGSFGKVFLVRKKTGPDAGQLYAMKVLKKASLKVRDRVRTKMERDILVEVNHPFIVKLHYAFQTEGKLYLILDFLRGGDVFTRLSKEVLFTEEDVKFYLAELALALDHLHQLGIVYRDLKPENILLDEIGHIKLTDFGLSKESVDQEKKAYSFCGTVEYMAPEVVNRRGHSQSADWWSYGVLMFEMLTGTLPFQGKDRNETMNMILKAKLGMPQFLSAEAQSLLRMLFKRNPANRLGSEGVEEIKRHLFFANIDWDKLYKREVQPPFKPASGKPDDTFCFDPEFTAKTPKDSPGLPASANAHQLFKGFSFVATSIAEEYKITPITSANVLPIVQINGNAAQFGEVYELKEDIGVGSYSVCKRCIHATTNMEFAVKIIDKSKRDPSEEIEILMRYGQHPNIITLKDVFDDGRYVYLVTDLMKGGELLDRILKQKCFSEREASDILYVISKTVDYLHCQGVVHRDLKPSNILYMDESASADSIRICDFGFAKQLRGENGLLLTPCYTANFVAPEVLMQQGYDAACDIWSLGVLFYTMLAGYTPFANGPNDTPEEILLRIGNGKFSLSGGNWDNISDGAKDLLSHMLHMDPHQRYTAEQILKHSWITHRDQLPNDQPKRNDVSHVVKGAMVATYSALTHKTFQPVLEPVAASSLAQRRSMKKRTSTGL
Sequence of MAP3K10 (human) (Q02779 whole entry, looked up): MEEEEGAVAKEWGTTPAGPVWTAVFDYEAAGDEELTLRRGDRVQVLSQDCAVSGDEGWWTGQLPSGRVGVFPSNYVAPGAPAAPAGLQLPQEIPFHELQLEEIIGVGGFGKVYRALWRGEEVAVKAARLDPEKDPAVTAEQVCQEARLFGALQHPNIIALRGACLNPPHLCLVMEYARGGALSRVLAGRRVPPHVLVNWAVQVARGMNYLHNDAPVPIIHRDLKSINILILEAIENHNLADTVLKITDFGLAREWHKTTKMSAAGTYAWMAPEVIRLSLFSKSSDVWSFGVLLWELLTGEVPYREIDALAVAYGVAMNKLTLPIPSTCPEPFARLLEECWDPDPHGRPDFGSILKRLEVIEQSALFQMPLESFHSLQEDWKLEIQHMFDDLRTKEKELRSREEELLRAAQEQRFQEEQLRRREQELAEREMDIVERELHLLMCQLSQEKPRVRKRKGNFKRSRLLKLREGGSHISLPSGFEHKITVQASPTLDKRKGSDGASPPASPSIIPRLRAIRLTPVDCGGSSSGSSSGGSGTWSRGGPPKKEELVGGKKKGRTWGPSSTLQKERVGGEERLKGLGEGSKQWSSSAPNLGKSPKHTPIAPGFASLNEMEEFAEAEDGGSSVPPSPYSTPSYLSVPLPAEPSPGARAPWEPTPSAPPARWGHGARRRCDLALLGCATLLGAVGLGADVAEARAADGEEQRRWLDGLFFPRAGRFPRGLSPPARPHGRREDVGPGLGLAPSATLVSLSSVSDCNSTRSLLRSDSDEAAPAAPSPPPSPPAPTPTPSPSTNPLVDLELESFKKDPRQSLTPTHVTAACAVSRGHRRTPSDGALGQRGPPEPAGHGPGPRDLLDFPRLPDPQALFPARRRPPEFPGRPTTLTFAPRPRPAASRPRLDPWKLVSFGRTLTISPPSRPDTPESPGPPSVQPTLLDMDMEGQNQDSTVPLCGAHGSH
Sequence of PASK (human) (Q96RG2 whole entry, looked up): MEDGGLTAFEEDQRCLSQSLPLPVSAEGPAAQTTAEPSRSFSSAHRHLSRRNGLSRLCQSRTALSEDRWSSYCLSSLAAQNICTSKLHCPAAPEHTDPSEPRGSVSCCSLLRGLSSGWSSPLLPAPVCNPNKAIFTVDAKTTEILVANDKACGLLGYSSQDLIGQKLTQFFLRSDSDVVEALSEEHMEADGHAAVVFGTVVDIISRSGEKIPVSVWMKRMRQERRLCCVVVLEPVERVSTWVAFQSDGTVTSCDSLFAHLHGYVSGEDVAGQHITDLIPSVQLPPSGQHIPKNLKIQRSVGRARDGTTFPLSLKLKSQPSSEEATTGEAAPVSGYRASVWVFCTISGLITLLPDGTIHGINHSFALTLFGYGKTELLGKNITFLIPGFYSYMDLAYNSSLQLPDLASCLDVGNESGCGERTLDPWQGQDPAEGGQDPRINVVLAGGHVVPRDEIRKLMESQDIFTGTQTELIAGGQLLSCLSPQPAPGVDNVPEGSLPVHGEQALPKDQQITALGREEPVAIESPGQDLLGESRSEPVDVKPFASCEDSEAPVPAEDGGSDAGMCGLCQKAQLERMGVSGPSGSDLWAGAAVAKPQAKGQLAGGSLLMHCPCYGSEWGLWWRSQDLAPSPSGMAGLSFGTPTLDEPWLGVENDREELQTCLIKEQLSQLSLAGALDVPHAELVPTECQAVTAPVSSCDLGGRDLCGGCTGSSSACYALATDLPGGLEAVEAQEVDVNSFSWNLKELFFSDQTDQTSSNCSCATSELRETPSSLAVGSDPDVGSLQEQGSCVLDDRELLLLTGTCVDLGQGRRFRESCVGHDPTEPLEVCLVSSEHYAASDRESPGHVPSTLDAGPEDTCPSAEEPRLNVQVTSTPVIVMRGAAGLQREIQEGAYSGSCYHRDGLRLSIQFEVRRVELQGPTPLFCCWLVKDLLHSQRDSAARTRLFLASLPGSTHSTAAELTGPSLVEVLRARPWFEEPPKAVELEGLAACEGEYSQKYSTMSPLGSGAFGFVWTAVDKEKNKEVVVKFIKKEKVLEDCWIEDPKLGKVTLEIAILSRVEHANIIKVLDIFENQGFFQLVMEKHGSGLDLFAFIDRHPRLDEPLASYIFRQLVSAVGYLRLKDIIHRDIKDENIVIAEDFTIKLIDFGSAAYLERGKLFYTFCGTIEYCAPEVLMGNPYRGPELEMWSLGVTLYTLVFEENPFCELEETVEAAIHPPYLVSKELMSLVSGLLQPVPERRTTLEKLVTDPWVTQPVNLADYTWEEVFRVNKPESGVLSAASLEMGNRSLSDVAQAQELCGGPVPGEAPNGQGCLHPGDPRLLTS
Sequence of BRSK1 (human) (Q8TDC3 whole entry, looked up): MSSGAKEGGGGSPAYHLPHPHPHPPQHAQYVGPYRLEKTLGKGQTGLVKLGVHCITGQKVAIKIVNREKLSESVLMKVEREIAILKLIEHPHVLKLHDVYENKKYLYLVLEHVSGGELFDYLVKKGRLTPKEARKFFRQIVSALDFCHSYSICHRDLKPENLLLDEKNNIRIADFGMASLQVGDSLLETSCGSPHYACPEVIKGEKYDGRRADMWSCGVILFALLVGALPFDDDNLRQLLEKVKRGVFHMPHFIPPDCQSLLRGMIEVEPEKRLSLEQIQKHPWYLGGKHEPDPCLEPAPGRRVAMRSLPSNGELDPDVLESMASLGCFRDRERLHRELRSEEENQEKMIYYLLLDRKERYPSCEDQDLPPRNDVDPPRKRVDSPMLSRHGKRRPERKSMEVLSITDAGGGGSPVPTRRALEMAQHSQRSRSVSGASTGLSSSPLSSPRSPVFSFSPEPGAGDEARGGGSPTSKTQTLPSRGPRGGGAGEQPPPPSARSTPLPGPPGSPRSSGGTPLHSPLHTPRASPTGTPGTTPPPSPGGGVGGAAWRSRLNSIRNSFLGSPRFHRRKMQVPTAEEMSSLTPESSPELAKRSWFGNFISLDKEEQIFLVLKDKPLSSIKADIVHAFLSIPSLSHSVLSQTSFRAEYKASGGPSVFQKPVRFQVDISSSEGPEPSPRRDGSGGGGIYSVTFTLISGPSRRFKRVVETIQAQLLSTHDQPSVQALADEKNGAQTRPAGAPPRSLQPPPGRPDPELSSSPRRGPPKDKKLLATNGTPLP
Sequence of ACVR1B (human) (P36896 whole entry, looked up): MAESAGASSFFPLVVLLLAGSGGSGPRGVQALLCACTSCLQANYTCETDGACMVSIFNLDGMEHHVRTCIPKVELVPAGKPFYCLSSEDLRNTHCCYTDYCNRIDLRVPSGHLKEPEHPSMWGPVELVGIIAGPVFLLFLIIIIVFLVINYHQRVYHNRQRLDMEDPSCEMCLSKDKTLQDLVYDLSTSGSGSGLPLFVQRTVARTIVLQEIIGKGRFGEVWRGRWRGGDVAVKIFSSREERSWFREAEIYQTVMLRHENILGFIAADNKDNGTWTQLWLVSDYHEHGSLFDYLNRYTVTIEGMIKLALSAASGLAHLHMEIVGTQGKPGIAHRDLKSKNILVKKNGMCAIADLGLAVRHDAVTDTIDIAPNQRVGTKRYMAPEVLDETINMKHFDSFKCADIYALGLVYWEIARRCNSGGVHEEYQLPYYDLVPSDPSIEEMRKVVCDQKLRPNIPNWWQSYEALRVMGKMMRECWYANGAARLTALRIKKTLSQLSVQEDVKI

Work on `Cn1cc(/C=C2\C(=O)Nc3ccc(S(N)(=O)=O)cc32)c2ccccc21` yielded a residual activity (DCLK2 (human)) of 93.2%, a residual activity (EPHA7 (human)) of 41.3% and a residual activity (PLK2 (human)) of 104%. For the same molecule, the residual activity (NEK9 (human)) was 67.3%, the residual activity (AURKA (human)) was 20% and the residual activity (PTK2 (human)) was 94.1%. The residual activity (PRKD3 (human)) was 76.4%, the residual activity (MATK (human)) was 103% and the residual activity (MARK2 (human)) was 45.5%. For the same molecule, the residual activity (WNK2 (human)) was 97.7%, the residual activity (CDC42BPB (human)) was 114% and the residual activity (MAP3K10 (human)) was 95.9%. The residual activity (CDK2 CCNA2 (human)) was 66.2%, the residual activity (PASK (human)) was 84.8% and the residual activity (TAOK1 (human)) was 98.3%. For the same molecule, the residual activity (RPS6KA6 KD1 KD2 (human)) was 6.55%, the residual activity (INSRR (human)) was 86.9% and the residual activity (CAMK2G (human)) was 91.9%. The residual activity (CDK5 CDK5R1 p35 (human)) was 55.8%, the residual activity (FRK (human)) was 97.1% and the residual activity (CAMK4 (human)) was 96.4%. It also gave a residual activity (MKNK2 (human)) of 71.1%, a residual activity (SRPK2 (human)) of 51.4% and a residual activity (SIK2 (human)) of 81.4%. It also gave a residual activity (MAP3K9 (human)) of 28.1%, a residual activity (PDGFRA (human)) of 81% and a residual activity (ACVR1B (human)) of 98.4%. For the same molecule, the residual activity (PKN2 (human)) was 81.8%, the residual activity (CAMKK1 (human)) was 44.9% and the residual activity (MUSK (human)) was 105%. For the same molecule, the residual activity (INSR (human)) was 87.4%, the residual activity (ABL1 (human)) was 52.5% and the residual activity (AKT1 (human)) was 105%. For the same molecule, the residual activity (STK39 (human)) was 79.3%, the residual activity (IKBKB (human)) was 101% and the residual activity (PRKD1 (human)) was 80%. It also gave a residual activity (PDPK1 (human)) of 95%, a residual activity (BRSK1 (human)) of 47.8% and a residual activity (MELK (human)) of 63%. The residual activity (MAP3K5 (human)) was 53.2%, the residual activity (RPS6KA3 KD1 KD2 (human)) was 12.4% and the residual activity (PAK2 (human)) was 79.2%.
`O=C1NC(=O)c2cc(Nc3ccc(F)cc3)c(Nc3ccc(F)cc3)cc21` showed a residual activity (DCLK2 (human)) of 100%, a residual activity (EPHA7 (human)) of 84.6% and a residual activity (PLK2 (human)) of 99.6%. It also gave a residual activity (NEK9 (human)) of 107%, a residual activity (AURKA (human)) of 92.7% and a residual activity (PTK2 (human)) of 96%. It also gave a residual activity (PRKD3 (human)) of 96.7%, a residual activity (MATK (human)) of 93.5% and a residual activity (MARK2 (human)) of 98.2%. It also gave a residual activity (WNK2 (human)) of 110%, a residual activity (CDC42BPB (human)) of 100% and a residual activity (MAP3K10 (human)) of 90.6%. For the same molecule, the residual activity (CDK2 CCNA2 (human)) was 95.3%, the residual activity (PASK (human)) was 91.3% and the residual activity (TAOK1 (human)) was 90.3%. The residual activity (RPS6KA6 KD1 KD2 (human)) was 97.4%, the residual activity (INSRR (human)) was 111% and the residual activity (CAMK2G (human)) was 101%. For the same molecule, the residual activity (CDK5 CDK5R1 p35 (human)) was 98.5%, the residual activity (FRK (human)) was 97.2% and the residual activity (CAMK4 (human)) was 98.7%. The residual activity (MKNK2 (human)) was 101%, the residual activity (SRPK2 (human)) was 92.3% and the residual activity (SIK2 (human)) was 103%. The residual activity (MAP3K9 (human)) was 102%, the residual activity (PDGFRA (human)) was 101% and the residual activity (ACVR1B (human)) was 94.2%. The residual activity (PKN2 (human)) was 102%, the residual activity (CAMKK1 (human)) was 90.2% and the residual activity (MUSK (human)) was 90.2%. It also gave a residual activity (INSR (human)) of 98.3%, a residual activity (ABL1 (human)) of 95.7% and a residual activity (AKT1 (human)) of 94.8%. For the same molecule, the residual activity (STK39 (human)) was 89.2%, the residual activity (IKBKB (human)) was 95.6% and the residual activity (PRKD1 (human)) was 92.2%. The residual activity (PDPK1 (human)) was 102%, the residual activity (BRSK1 (human)) was 94.3% and the residual activity (MELK (human)) was 92%. It also gave a residual activity (MAP3K5 (human)) of 96.6%, a residual activity (RPS6KA3 KD1 KD2 (human)) of 118% and a residual activity (PAK2 (human)) of 98.5%.
Molecule `N#CCCc1ccc2c(c1)-c1[nH]c3ccc([N+](=O)[O-])cc3c1CC(=O)N2` has a residual activity (DCLK2 (human)) of 104%, a residual activity (EPHA7 (human)) of 95.3% and a residual activity (PLK2 (human)) of 99%. It also gave a residual activity (NEK9 (human)) of 103%, a residual activity (AURKA (human)) of 78.7% and a residual activity (PTK2 (human)) of 82.2%. For the same molecule, the residual activity (PRKD3 (human)) was 84%, the residual activity (MATK (human)) was 101% and the residual activity (MARK2 (human)) was 65.5%. It also gave a residual activity (WNK2 (human)) of 112%, a residual activity (CDC42BPB (human)) of 54.1% and a residual activity (MAP3K10 (human)) of 30%. For the same molecule, the residual activity (CDK2 CCNA2 (human)) was 2.93%, the residual activity (PASK (human)) was 96.9% and the residual activity (TAOK1 (human)) was 73.1%. The residual activity (RPS6KA6 KD1 KD2 (human)) was 13.4%, the residual activity (INSRR (human)) was 99.2% and the residual activity (CAMK2G (human)) was 66%. For the same molecule, the residual activity (CDK5 CDK5R1 p35 (human)) was 2.6%, the residual activity (FRK (human)) was 92.7% and the residual activity (CAMK4 (human)) was 98.4%. It also gave a residual activity (MKNK2 (human)) of 87.7%, a residual activity (SRPK2 (human)) of 109% and a residual activity (SIK2 (human)) of 44.2%. The residual activity (MAP3K9 (human)) was 18.2%, the residual activity (PDGFRA (human)) was 87.4% and the residual activity (ACVR1B (human)) was 110%. It also gave a residual activity (PKN2 (human)) of 77.9%, a residual activity (CAMKK1 (human)) of 86.7% and a residual activity (MUSK (human)) of 63%. It also gave a residual activity (INSR (human)) of 94.1%, a residual activity (ABL1 (human)) of 47.8% and a residual activity (AKT1 (human)) of 111%. For the same molecule, the residual activity (STK39 (human)) was 96.4%, the residual activity (IKBKB (human)) was 96.3% and the residual activity (PRKD1 (human)) was 87.5%. For the same molecule, the residual activity (PDPK1 (human)) was 79.8%, the residual activity (BRSK1 (human)) was 46.8% and the residual activity (MELK (human)) was 88.6%. It also gave a residual activity (MAP3K5 (human)) of 101%, a residual activity (RPS6KA3 KD1 KD2 (human)) of 28.6% and a residual activity (PAK2 (human)) of 55.6%.
In the case of `O=C(O)c1ccc2c3c1cccc3c(=O)n1c3ccccc3nc21`, the residual activity (DCLK2 (human)) is reported as 96.7%, the residual activity (EPHA7 (human)) is reported as 103% and the residual activity (PLK2 (human)) is reported as 97%. It also gave a residual activity (NEK9 (human)) of 94.1%, a residual activity (AURKA (human)) of 78.6% and a residual activity (PTK2 (human)) of 97.5%. For the same molecule, the residual activity (PRKD3 (human)) was 82.2%, the residual activity (MATK (human)) was 94% and the residual activity (MARK2 (human)) was 87.7%. The residual activity (WNK2 (human)) was 106%, the residual activity (CDC42BPB (human)) was 109% and the residual activity (MAP3K10 (human)) was 99.3%. For the same molecule, the residual activity (CDK2 CCNA2 (human)) was 82.7%, the residual activity (PASK (human)) was 106% and the residual activity (TAOK1 (human)) was 93.3%. For the same molecule, the residual activity (RPS6KA6 KD1 KD2 (human)) was 101%, the residual activity (INSRR (human)) was 101% and the residual activity (CAMK2G (human)) was 96.5%. For the same molecule, the residual activity (CDK5 CDK5R1 p35 (human)) was 88%, the residual activity (FRK (human)) was 97.6% and the residual activity (CAMK4 (human)) was 101%. The residual activity (MKNK2 (human)) was 57.2%, the residual activity (SRPK2 (human)) was 89.3% and the residual activity (SIK2 (human)) was 92.8%. The residual activity (MAP3K9 (human)) was 64.4%, the residual activity (PDGFRA (human)) was 94.4% and the residual activity (ACVR1B (human)) was 93.5%. It also gave a residual activity (PKN2 (human)) of 97.9%, a residual activity (CAMKK1 (human)) of 45.8% and a residual activity (MUSK (human)) of 47.1%. It also gave a residual activity (INSR (human)) of 91.5%, a residual activity (ABL1 (human)) of 99.3% and a residual activity (AKT1 (human)) of 101%. It also gave a residual activity (STK39 (human)) of 102%, a residual activity (IKBKB (human)) of 109% and a residual activity (PRKD1 (human)) of 86.2%. For the same molecule, the residual activity (PDPK1 (human)) was 108%, the residual activity (BRSK1 (human)) was 89% and the residual activity (MELK (human)) was 97%. The residual activity (MAP3K5 (human)) was 102%, the residual activity (RPS6KA3 KD1 KD2 (human)) was 95.5% and the residual activity (PAK2 (human)) was 97%.
